{"source": "paper PMC7395068", "about": "“The evolution of strategies to minimise the risk of human drug-induced liver injury (DILI) in drug discovery and development” (Archives of Toxicology, 2020)", "key": {"[1]": {"experiment": "Plasma free fraction (fu) and unbound Cmax (Cmax,u)", "type": "in vitro ADME, human", "settings": "human", "method": "The prediction of DILI severity was evaluated further using the 3D combined HCI assays using plasma-free fraction. The majority of fu values were obtained from literature, when unavailable in-house prediction was utilised. Unbound plasma Cmax concentrations (Cmax,u) were derived by multiplying total plasma Cmax with the corresponding free fraction (fu) for each compound."}, "hLiMTs [2]": {"tested_on": "hLiMTs"}, "HepaRG spheroids [3]": {"tested_on": "HepaRG spheroids"}, "[4]": {"tested_on": "primary human hepatocytes, NIH3T3 fibroblasts, BSEP, CYP3A4", "settings": "cited from earlier work"}, "HepG2 cells": {"tested_on": "HepG2 cells", "settings": "cited from earlier work"}, "human hepatocytes": {"tested_on": "human hepatocytes", "settings": "cited from earlier work"}, "[5]": {"tested_on": "THLE or HepG2 cells, isolated mitochondria, BSEP", "settings": "cited from earlier work"}, "PHH": {"tested_on": "PHH", "settings": "cited from earlier work"}, "PHH spheroids": {"tested_on": "PHH spheroids", "settings": "cited from earlier work"}, "[6]": {"tested_on": "HepG2 C3A spheroid, BSEP, Glu/Gal in HepG2 cells, bioactivation", "settings": "cited from earlier work"}, "[7]": {"settings": "human, in vivo; cited from earlier work"}, "[8]": {"settings": "in vivo; cited from earlier work"}, "[9]": {"tested_on": "THLE-Null and THLE-3A4 cells", "settings": "cited from earlier work"}, "[10]": {"tested_on": "HepG2 cells, primary human hepatocytes", "settings": "cited from earlier work"}, "Upcyte human hepatocytes": {"tested_on": "Upcyte human hepatocytes", "settings": "cited from earlier work"}, "[11]": {"settings": "in vivo; cited from earlier work", "remark": "listed apart in the source"}, "rBsep": {"tested_on": "rBsep", "settings": "cited from earlier work"}, "hLiMTs [12]": {"tested_on": "hLiMTs", "experiment": "Combined HCI (HCS) and cellular ATP 3D assay in hLiMTs", "settings": "Homo sapiens"}, "HepaRG spheroids [13]": {"tested_on": "HepaRG spheroids", "experiment": "Combined HCI (HCS) and cellular ATP 3D assay in HepaRG spheroids", "settings": "Homo sapiens, HepaRG"}}, "note": "Where two headings read alike, the source gives them in different places."}
{"smiles": "Nc1c2c(nc3ccccc13)CCCC2", "note": "[tacrine, reference compound]", "values": [{"measurement": "Human plasma Cmax,u", "setting": "[1]", "value": 36, "unit": "nM"}, {"measurement": "hLiMTs <10 uM All", "setting": "hLiMTs [2]", "value": "-ve"}, {"measurement": "hLiMTs <100x Avg Cmaxu ATP", "setting": "hLiMTs [2]; human", "value": "-ve"}, {"measurement": "hLiMTs <100x Avg Cmaxu All", "setting": "hLiMTs [2]; human", "value": "-ve"}, {"measurement": "hLiMTs <100x Avg Cmaxu HCS", "setting": "hLiMTs [2]; human", "value": "-ve"}, {"measurement": "hLiMTs Cmax max All", "setting": "hLiMTs [2]; human", "value": "-ve"}, {"measurement": "hLiMTs Cmax min All", "setting": "hLiMTs [2]; human", "value": "-ve"}, {"measurement": "HepaRG <10 uM All", "setting": "HepaRG spheroids [3]", "value": "-ve"}, {"measurement": "HepaRG <100x Avg Cmaxu ATP", "setting": "HepaRG spheroids [3]; human", "value": "-ve"}, {"measurement": "HepaRG <100x Avg Cmaxu All", "setting": "HepaRG spheroids [3]; human", "value": "-ve"}, {"measurement": "HepaRG <100x Avg Cmaxu HCS", "setting": "HepaRG spheroids [3]; human", "value": "-ve"}, {"measurement": "HepaRG Cmax max All", "setting": "HepaRG spheroids [3]; human", "value": "-ve"}, {"measurement": "HepaRG Cmax min All", "setting": "HepaRG spheroids [3]; human", "value": "-ve"}, {"measurement": "Cellular toxicity (3T3 cells)", "setting": "[4]", "value": "-VE"}, {"measurement": "Combined Assay", "setting": "[4]", "value": "+VE"}, {"measurement": "DILI in vitro assay prediction, Schadt (2015)", "setting": "[4]", "value": "+VE"}, {"measurement": "GSH adduct HML", "setting": "[4]", "value": "+VE"}, {"measurement": "Hepatocyte cellular toxicity", "setting": "[4]", "value": "-VE"}, {"measurement": "MitoTox 3T3", "setting": "[4]", "value": "-VE"}, {"measurement": "TDI CYP3A4", "setting": "[4]", "value": "-VE"}, {"measurement": "hBSEP inhibition", "setting": "[4]", "value": "-VE"}, {"measurement": "Structural based (HCI)", "setting": "HepG2 cells", "value": "-VE"}, {"measurement": "DILI in vitro assay prediction, Xu (2008)", "setting": "human hepatocytes", "value": "-VE"}, {"measurement": "Structural based (HCI)", "setting": "human hepatocytes", "value": "-VE"}, {"measurement": "Ro2 Hybrid HRM Score", "setting": "[5]", "value": "+VE"}, {"measurement": "Rule of Two hybrid HRM Score ≥8, Aleo (2019)", "setting": "[5]", "value": "-VE"}, {"measurement": "PHH ATP <100uM", "setting": "PHH", "value": "-VE"}, {"measurement": "PHH/100uM, Proctor (2017)", "setting": "PHH", "value": "-VE"}, {"measurement": "DILI in vitro assay prediction, Vorrink (2018)", "setting": "PHH spheroids", "value": "-VE"}, {"measurement": "Bayesian Machine Learning", "setting": "[6]", "value": "+VE"}, {"measurement": "Bayesian Machine Learning DILI prediction, Williams (2019)", "setting": "[6]", "value": "+VE"}, {"measurement": "Cmax", "setting": "[7]", "value": 80, "unit": "nM"}, {"measurement": "Assigned DILI category", "setting": "[8]", "value": 2}, {"measurement": "THLE-Null", "setting": "[9]", "value": "-VE"}, {"measurement": "Cluster 1-6 +VE Assay", "setting": "[10]", "value": "+VE"}, {"measurement": "Upcytes multi donor assay 14day data", "setting": "Upcyte human hepatocytes", "value": "+VE"}, {"measurement": "DILI Score (FDA) (1-8)", "setting": "[11]", "value": 7}, {"measurement": "Inhibition of rBsep cutoff<3", "setting": "rBsep; In vitro Assay, ref Dawson 2012", "value": "-VE"}, {"measurement": "Inhibition of rBsep cutoff<1& cmax u>.2", "setting": "rBsep", "value": "-VE"}, {"measurement": "AC50", "setting": "hLiMTs [12]; read-out: ATP endpoint AC50", "value": 41.8, "unit": "µM"}, {"measurement": "minimal effective concentration", "setting": "hLiMTs [12]; read-out: ATP endpoint MEC", "value": 44.7, "unit": "µM"}, {"measurement": "AC50", "setting": "hLiMTs [12]; read-out: HCS endpoint AC50", "value": 52.4, "unit": "µM"}, {"measurement": "minimal effective concentration", "setting": "hLiMTs [12]; read-out: HCS endpoint MEC", "value": 38.5, "unit": "µM"}, {"measurement": "AC50", "setting": "HepaRG spheroids [13]; read-out: ATP endpoint AC50", "value": 51.8, "unit": "µM"}, {"measurement": "minimal effective concentration", "setting": "HepaRG spheroids [13]; read-out: ATP endpoint MEC", "value": 45.3, "unit": "µM"}, {"measurement": "AC50", "setting": "HepaRG spheroids [13]; read-out: HCS endpoint AC50", "value": 65.6, "unit": "µM"}, {"measurement": "minimal effective concentration", "setting": "HepaRG spheroids [13]; read-out: HCS endpoint MEC", "value": 48.7, "unit": "µM"}]}
